Data from a compilation of properties of binary mixtures (doi:10.1016/j.jtice.2008.09.006).

Assay: xn = mol fraction of the nth substance listed
Settings: 101 kPa

For `CCCC[n+]1ccn(C)c1.F[P-](F)(F)(F)(F)F` + O, the electrical conductivity (293.2 K, x2 = 0.05) was 0.181 S/m, the electrical conductivity (293.2 K, x2 = 0.15) was 0.235 S/m and the electrical conductivity (293.2 K, x2 = 0.2) was 0.29 S/m. For the same compound, the electrical conductivity (298.2 K, x2 = 0.1) was 0.268 S/m, the electrical conductivity (298.2 K, x2 = 0.2) was 0.364 S/m and the electrical conductivity (303.2 K, x2 = 0.05) was 0.291 S/m. It also gave an electrical conductivity (303.2 K, x2 = 0.1) of 0.331 S/m, an electrical conductivity (303.2 K, x2 = 0.15) of 0.382 S/m and an electrical conductivity (303.2 K, x2 = 0.2) of 0.448 S/m. It also gave an electrical conductivity (308.2 K, x2 = 0.05) of 0.351 S/m, an electrical conductivity (308.2 K, x2 = 0.15) of 0.469 S/m and an electrical conductivity (313.2 K, x2 = 0.05) of 0.423 S/m. For the same compound, the electrical conductivity (313.2 K, x2 = 0.1) was 0.488 S/m, the electrical conductivity (313.2 K, x2 = 0.2) was 0.652 S/m and the electrical conductivity (318.2 K, x2 = 0.1) was 0.563 S/m. For the same compound, the electrical conductivity (318.2 K, x2 = 0.15) was 0.675 S/m, the electrical conductivity (323.2 K, x2 = 0.05) was 0.592 S/m and the electrical conductivity (323.2 K, x2 = 0.15) was 0.792 S/m. The electrical conductivity (323.2 K, x2 = 0.2) was 0.911 S/m, the electrical conductivity (333.2 K, x2 = 0.05) was 0.701 S/m and the electrical conductivity (333.2 K, x2 = 0.1) was 0.797 S/m. For the same compound, the electrical conductivity (333.2 K, x2 = 0.15) was 0.923 S/m, the electrical conductivity (343.2 K, x2 = 0.05) was 0.833 S/m and the electrical conductivity (343.2 K, x2 = 0.1) was 0.928 S/m. The electrical conductivity (343.2 K, x2 = 0.2) was 1.23 S/m, the electrical conductivity (353.2 K, x2 = 0.05) was 1.06 S/m and the electrical conductivity (353.2 K, x2 = 0.1) was 1.22 S/m.
